Laboratory results reported in patent US10807958B2, “1,4-bis(3-aminopropyl)piperazine derivative and its use” (INSERM (Institut National de la Sante et de la Recherche …, priority 2015, dated 2020).

Experiments:
Thy-Tau22 mice = assay: Morris water maze spatial memory, Thy-Tau22 mice; format: in vivo, mouse; conditions: 4 months
From the text: Wild-type C57BL/6J animals of 3 months were purchased at Charles Rivers Laboratories (France) and were allow to acclimate in the animal facility for at least one week before any treatment. Thy-Tau22 transgenic colonies (C57BL/6J genetic background) were obtained by crossing heterozygous Thy-Tau22 males with C57BL/6 WT females. […] In this model, a progressive development of NFT is observed in the hippocampus and amygdala, which parallels behavioral impairments (Schindowski et al., 2006). Furthermorever, in the hippocampus, hyper- and abnormally phosphorylated Tau species accumulate within the somato-dendritic area (Schindowski et al., 2006).
For animal treatment, animals were randomly distributed and the compound of Formula I was given in the drinking water at final concentration of 0.5 or 1 mg/kg. Drinking bottles were changed once per week, volume consumption was measured along the treatment period. Food consumption and body weight were assessed. In wild-type animals the pilot study of drug treatment was performed for one month to establish the innocuousness of the treatment with the compound of Formula I. This was based on the physiological, social and behavioural assessments. Thy-Tau22 males were treated for 4 months starting at 3 month old. All protocols were approved by the local ethics committee (n^∘342012, CEEA).
Before any behavioral test, exploratory and locomotion of treated and untreated animal were evaluated in a Open field (OF) 25 cm×25 cm arena. Four acquisitions in joined arena were performed simultaneously. Each mouse was placed in the arena and allowed to explore for at least 5 min. Parameters including distance, speed, velocity were acquired by video recording using the EthoVision video tracking equipment and software (Noldus, Information Technology, Paris, France) in a dedicated room. The anxiety, which could interfere with memory test, was evaluated by the elevated plus maze (EPM). […] Locomotion, distance, speed and velocity were measured as well as the number of arm entries, time spent in the open versus closed arms, percentage of open arm entries and time per minute spent in the open arms on a total of 5 min test.
Spatial learning and memory abilities were assessed in a standard hidden-platform acquisition and retention version of the Morris water maze task (Van der Jeugd et al., 2013). […] The time required to find the hidden rescue platform (escape latency) was used as a spatial learning index and was recorded using the Ethovision XT video tracking system (Noldus France). Swimming speed and total distance were also measured. 72 h after the acquisition phase, the hidden platform was removed and spatial memory was evaluated in a 60 s probe trial. […]

[1] = system: Neuroblastoma SKNSH-SY5Y cells expressing the human Tau isoform 412; assay: 2D gel electrophoresis of Tau isovariants in treated cells; format: cell-based; conditions: 10 μM, vs control conditions, FIG. 2
From the text: Pan-Tau and phospho-dependent Tau antibodies included Tau-Nter (M19G, 1/10 000, Sergeant et al., 1999), Tau-Cter (1/10 000, Sergeant et al., 1999, Le Freche et al., 2012), Tau-1 (1/5000, Merck Millipore), S199P (directed against the phospho-serine 199, 1/4000, Sergeant et al., 1999), Tau-Phospho S396 (directed against the phosphor-serine 396, 1/10000, Lifetechnologies), Tau-Phospho 404 (1/10 000, Lifetechnologies), 422 (clone 2H9, a homemade monoclonal antibody developed against a phospho-peptide containing the phosphorylated serine 422 residue of Tau, numbering according to the longest human brain Tau-441 isoform), AT8 (1/1000, Thermo Scientific), AT270 (1/2000, Thermo Scientific), AT100 (1/1000, Thermo Scientific). Neuron specific enolase (1/10 000), β-actin (1/5000) and β-tubulin (1/10 000) were from Sigma-Aldrich.
Human neuroblastoma cell line SKNSH-SY5Y cells expressing the human Tau isoform 412 (with the exon 2 and 10 encoding sequences) (or SY5Y-Tau46) was as previously described in Bretteville et al., 2009. […]
The effect of the compound of Formula I on Tau phosphorylation was analyzed in vitro and in vivo. […]
Expression and total phosphorylation was assessed by 1D and 2D gel electrophoresis using phospho-dependent and pan-Tau antibodies (FIGS. 1 and 2). […]

CC(C)CN(CCCN1CCN(CCCNc2c3c(nc4ccccc24)CCCC3)CC1)CC(C)C [compound of Formula I, N-[3-(4-{3-[Bis(2-methylpropyl)amino]propyl}piperazin-1-yl)propyl]-1,2,3,4-tetrahydroacridin-9-amine]
probe test, spatial memory in Thy-Tau22 mice (Thy-Tau22 mice; 0.5 mg/kg, probe test 72 hours after last learning day): preserved | development of spatial memory impairments (ANOVA statistical analysis) (Thy-Tau22 mice; Thy-Tau22 mice, 0.5 mg/kg): protected or preserved | time spent in the target quadrant versus the others (Thy-Tau22 mice; Thy-Tau22 treated, 0.5 mg/kg, untreated spent equal % of time, FIG. 4B): more time | learning phase (distance to reach the platform) between the animal groups (Thy-Tau22 mice; WT and Thy-Tau22, treated or not with 0.5 mg/kg, FIG. 4A): not significantly different | Tau isovariants at the neutral pI, N- and C-terminal directed pan-Tau antibodies [1]: reduction | Tau isovariants at the neutral pI, Tau396 phospho-dependent antibody (S396) [1]: reduction
